The source of these data is patent US20260232750A1, “COMPOSITION AND METHOD FOR INHIBITING ADVANCED GLYCATION END PRODUCTS” (ACCESS BUSINESS GROUP INTERNATIONAL LLC, priority 2022, published 2026).

Holding throughout (type): biochemical
Experiment [1] can be described thus: FRAP total antioxidant capacity assay. How it is done:
(§1) Fast colourimetric methods were slightly modified for the in vitro assessment of DPPH· scavenging, ABTS·+ decolourisation capacity, and total antioxidant capacity of FRAP. The stock solutions of derivatisation reagents were diluted as follows before measurement: DPPH was diluted with absolute ethanol until the absorbance was 0.8±0.05 at λ=517 nm. ABTS working solution was prepared with phosphate buffer (0.2 M, pH 7.4) to display absorbance of 0.8±0.05 at λ=729 nm, based on a previous study. The FRAP solution was prepared according to the instructions of the FRAP kit. Absorbances were measured using an automatic microplate reader (Molecular Group Ltd., USA), and all analyses were performed using 96-well plates. All measurements were performed in triplicate, and Trolox was used as a positive control.
For total antioxidant capacity, 180 μl of FRAP solution was mixed with 5 μl of sample solution, and the absorbance was measured after 5 min at […] with PBS as the negative control. FeSO4 solutions (0.15, 0.3, 0.6, 0.9, 1.2, and 1.5 mM) were used for the calibration curve. The FRAP value represents the corresponding concentration of FeSO4 solutions (mM FeSO4). The regression equation from the standard curve was used to calculate the equivalent concentration 1 (EC1) of each sample. EC1 is defined as the concentration of the test sample with an absorbance equivalent to that of 1.0 mmol/L of FeSO4 solution, determined by its calibration curve.

A further experiment addresses T1, COX-2 (Homo sapiens, UniProt P35354).
T1 construct: purchased Beyotime S0168
T1 sequence (P35354 18-604): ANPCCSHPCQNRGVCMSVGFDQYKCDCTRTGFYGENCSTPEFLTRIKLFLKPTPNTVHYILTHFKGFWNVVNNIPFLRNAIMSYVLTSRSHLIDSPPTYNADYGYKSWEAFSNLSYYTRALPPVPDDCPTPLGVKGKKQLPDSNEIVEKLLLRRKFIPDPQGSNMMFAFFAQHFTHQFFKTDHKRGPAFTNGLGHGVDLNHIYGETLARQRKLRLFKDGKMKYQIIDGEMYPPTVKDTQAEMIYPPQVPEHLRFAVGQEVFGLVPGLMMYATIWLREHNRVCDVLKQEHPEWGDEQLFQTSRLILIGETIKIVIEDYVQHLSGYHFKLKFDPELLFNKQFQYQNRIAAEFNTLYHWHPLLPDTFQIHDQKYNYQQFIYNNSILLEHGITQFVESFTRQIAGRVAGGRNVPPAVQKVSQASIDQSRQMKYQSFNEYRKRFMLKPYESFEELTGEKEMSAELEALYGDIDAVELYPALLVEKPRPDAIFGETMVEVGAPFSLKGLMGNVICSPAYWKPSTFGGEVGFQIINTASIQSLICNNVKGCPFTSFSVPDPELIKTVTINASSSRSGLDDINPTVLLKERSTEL
In words: Anti-COX-2 assay (COX-2 Inhibitor Screening Kit).

Another experiment can be described thus: DPPH· scavenging assay. (The DPPH test is a chemical assay of radical scavenging.)
The nature of experiment [2]: Online UPLC-PDA-MS-ABTS·+ scavenging (post-column derivatisation). Conditions: online profiling of DOF extract. The procedure:
Online identification of antioxidant components of DOF extract was performed using a UPLC system (Milford, MA, USA) consisting of a Waters photodiode array detector and a Waters postcolumn derivatisation system supplying fresh ABTS solution (UPLC-PDA-QDa-ABTS). […] The detection wavelengths were set at 280 and 734 nm, and the injection volume of the sample was 10 μl.
To detect radical scavengers, the UPLC system was coupled with a Waters pump, which supplied freshly prepared ABTS·+ solution into a reaction coil (15 m, 0.25 mm ID) with a flow rate of 0.2 ml/min at 37° C. Negative peaks were recorded based on a decrease of absorbance at 729 nm after the reaction of individual compounds with the ABTS·+ radical. For preliminary identification of compounds, a Waters Acquity QDa mass detector in negative ionisation mode was connected in series to PDA with the following parameters: electrospray ion source; cone voltage, 15 V; atomiser, N2; and scanning range, 100-800 m/z.

A short description of experiment [3]: ABTS·+ decolourisation assay. To be noted: for IC50: read-out: IC50 against the ABTS radical. The procedure: as §1
For ABTS·+ decolourisation capacity, 100 μl of ABTS working solution was mixed with 200 μl of sample solution, and the absorbance was recorded after 10 min at 729 nm. Phosphate buffer (0.2 M, pH 7.4) was used as a negative control.
DPPH· and ABTS·+ radical scavenging activities of the tested sample were both calculated using the following formula: […]
where A control and A sample represent the absorbance of the control and test samples, respectively. The IC50 was calculated graphically from the dose-inhibition curves.

“Also recorded” adds a separate entry of the source. Read-outs that look alike come from different tables or passages of the source.

Experimental for COX-2: Anti-inflammatory activity was assessed by measuring COX-2 enzymatic inhibition on the basis of a described method by using the COX-2 Inhibitor Screening Kit (Beyotime, No. S0168). Celecoxib, a COX-2 inhibitor, was used as a positive control.

Consider `O=c1cc(-c2ccc(O)c(O)c2)oc2c(C3OCC(O)C(O)C3O)c(O)c(C3OC(CO)C(O)C(O)C3O)c(O)c12` [Compound 15, Luteolin-6-C-β-D-glucoside-8-C-β-D-xyloside], for which the “antioxidant ability by FRAP (in words)” value in experiment [1] is given as “great antioxidant potency”. The “FRAP EC1 (mM)” value in experiment [1] (Table 11, mean ± SD, n = 3) is 1,100.3 µM. Further, at COX-2, the “COX-2 inhibition (in words)” value is “great COX-2 inhibition; also recorded: outstanding COX-2 inhibitory effects”. Further, the “antioxidant ability by DPPH (in words)” value in the experiment “DPPH· scavenging assay” is given as “great antioxidant potency”.

As to `O=c1cc(-c2ccc(O)cc2)oc2c([C@@H]3O[C@H](CO)[C@@H](O)[C@H](O)[C@H]3O)c(O)c([C@@H]3O[C@H](CO)[C@@H](O)[C@H](O)[C@H]3O)c(O)c12` [Compound 10, Vicenin-2], the “ABTS radical scavenging by size of negative peaks at 734 nm (in words)” value (shortened to “ABTS radical scavenging by size”) in experiment [2] is reported as “strongest ABTS radical scavengers”. Besides, at COX-2, the “COX-2 inhibition (in words)” value was “no inhibitory effects”.

Turning to `O=c1cc(-c2ccc(O)cc2)oc2c([C@@H]3OC[C@H](O)[C@H](O)[C@H]3O)c(O)c([C@@H]3O[C@H](CO)[C@@H](O)[C@H](O)[C@H]3O)c(O)c12` [Compound 17, Schaftoside], on COX-2, the “COX-2 inhibition (in words)” value was “no inhibitory effects”.

Regarding `Cc1c(C)c2c(c(C)c1O)CCC(C)(C(=O)O)O2` (centres unmarked) [Trolox, 6-hydroxyl-2,5,7,8-tetra-methylchroman-2-carboxylic acid, reference compound], the FRAP EC1 in experiment [1] (Table 11, mean ± SD, n = 3) was 560 µM; in experiment [1] (concentration equivalent to 1.0 mmol/L FeSO4, text b269), 55.35 ± 5.22 µg/mL. The “ABTS IC50” value in experiment [3] (text b269) is 27.68 ± 1.04 µg/mL.

One may read the IC50 as the concentration at which inhibition is half-maximal. For `O=c1c(OC2OC(CO)C(O)C(O)C2OC2OC(CO)C(O)C(O)C2O)c(-c2ccc(O)c(O)c2)oc2cc(O)cc(O)c12` (centres unmarked) [Compound 16, Quercetin-3-O-sophoroside], the “ABTS radical scavenging by size” value in experiment [2] is given as “strongest ABTS radical scavengers”. The “antioxidant ability by FRAP (in words)” value in experiment [1] is reported as “great antioxidant potency”. The FRAP EC1 in experiment [1] (Table 11, mean ± SD, n = 3) was 950 µM. On COX-2, the “COX-2 inhibition (in words)” value is “great COX-2 inhibition; also recorded: outstanding COX-2 inhibitory effects”. Also, the “antioxidant ability by DPPH (in words)” value in the experiment “DPPH· scavenging assay” is recorded as “great antioxidant potency”. The IC50 in experiment [3] came to 6.63 ± 0.41 µM.

For the compound `O=c1cc(-c2ccc(O)cc2)oc2c([C@@H]3OC[C@@H](O)[C@H](O)[C@H]3O)c(O)c([C@@H]3O[C@H](CO)[C@@H](O)[C@H](O)[C@H]3O)c(O)c12` [Compound 19, Vicenin-3], the “COX-2 inhibition (in words)” value on COX-2 is given as “no inhibitory effects”.

As to `O=c1cc(-c2ccc(O)cc2)oc2c([C@@H]3O[C@H](CO)[C@@H](O)[C@H](O)[C@H]3O)c(O)c([C@@H]3OC[C@@H](O)[C@H](O)[C@H]3O)c(O)c12` [Compound 14, Vicenin-1], the IC50 in experiment [3] was 96.4 ± 2.11 µM.

Take `O=c1cc(-c2ccc(O)c(O)c2)oc2c(C3OC(CO)C(O)C(O)C3O)c(O)c(C3OCC(O)C(O)C3O)c(O)c12` [Compound 11, Luteolin-6-C-β-D-xyloside-8-C-β-D-glucoside]: the “ABTS radical scavenging by size” value in experiment [2] was “strongest ABTS radical scavengers”. Also, in experiment [1], the “antioxidant ability by FRAP (in words)” value is “great antioxidant potency”. For the same compound, the “FRAP EC1 (mM)” value in experiment [1] (Table 11, mean ± SD, n = 3) is 1,009.1 µM. Also, the “COX-2 inhibition (in words)” value at COX-2 is given as “great COX-2 inhibition; also recorded: outstanding COX-2 inhibitory effects”. The “antioxidant ability by DPPH (in words)” value in the experiment “DPPH· scavenging assay” is “great antioxidant potency”.

Turning to `O=c1cc(-c2ccc(O)cc2)oc2c([C@@H]3OC[C@@H](O)[C@H](O)[C@H]3O)c(O)c([C@@H]3OC[C@H](O)[C@H](O)[C@H]3O)c(O)c12` [Compound 26, Apigenin-6-C-α-L-arabinoside-8-C-β-D-xyloside], the “FRAP EC1 (mM)” value in experiment [1] (Table 11, mean ± SD, n = 3) is >5,000 µM. Moreover, on COX-2, the “COX-2 inhibition (in words)” value is “no inhibitory effects”.

For `CC1OC(OCC2OC(Oc3c(-c4ccc(O)cc4)oc4cc(O)cc(O)c4c3=O)C(O)C(O)C2O)C(O)C(O)C1O` (centres unmarked) [Compound 28, Kaempferol-3-O-rutinoside], the “COX-2 inhibition (in words)” value at COX-2 is “no inhibitory effects”.

Regarding `O=C(O)CC(=O)OCC1OC(Oc2c(-c3ccc(O)c(O)c3)oc3cc(O)cc(O)c3c2=O)C(O)C(O)C1O` (centres unmarked) [Compound 27, Quercetin 3-O-(6″-malonyl-glucoside)], the “ABTS radical scavenging by size” value in experiment [2] is recorded as “strongest ABTS radical scavengers”. Also, the “antioxidant ability by FRAP (in words)” value in experiment [1] is listed as “great antioxidant potency”. Besides, the FRAP EC1 in experiment [1] (Table 11, mean ± SD, n = 3) stood at 827 µM. The “COX-2 inhibition (in words)” value on COX-2 is “great COX-2 inhibition; also recorded: outstanding COX-2 inhibitory effects”. Also, in “DPPH· scavenging assay”, the “antioxidant ability by DPPH (in words)” value is “great antioxidant potency”.

Take `O=c1cc(-c2ccc(O)c(O)c2)oc2cc(O)c(C3OC(CO)C(O)C(O)C3O)c(O)c12` [Compound 18, Luteolin-6-C-β-D-glucoside]: the “antioxidant ability by FRAP (in words)” value in experiment [1] is “great antioxidant potency”. For the same compound, the FRAP EC1 in experiment [1] (Table 11, mean ± SD, n = 3) is 507 µM. In addition, on COX-2, the “COX-2 inhibition (in words)” value is reported as “great COX-2 inhibition; also recorded: outstanding COX-2 inhibitory effects”. The “antioxidant ability by DPPH (in words)” value in “DPPH· scavenging assay” is given as “great antioxidant potency”.

`O=c1c(O[C@@H]2O[C@H](CO)[C@@H](O)[C@H](O)[C@H]2O)c(-c2ccc(O)cc2)oc2cc(O)cc(O)c12` [Compound 31, Astragalin]: the “COX-2 inhibition (in words)” value at COX-2 is given as “no inhibitory effects”.

`O=C(/C=C/c1ccc(O)c(O)c1)O[C@@H]1O[C@H](CO)[C@@H](O)[C@H](O)[C@H]1O` [Compound 5, 1-O-caffeoyl-β-D-glucoside]: in experiment [2], the “ABTS radical scavenging by size” value is listed as “strongest ABTS radical scavengers”.

Regarding `COc1cc(-c2oc3cc(O)cc(O)c3c(=O)c2O[C@@H]2O[C@H](CO)[C@@H](O)[C@H](O)[C@H]2O)ccc1O` [Compound 32, Isorhamnetin-3-O-glucoside], in experiment [1], the “EC1 of FRAP” value is recorded as 2,757.3±103.8 μM. In addition, the values for the IC50 against COX-2 and in the experiment “DPPH· scavenging assay” were 535 ± 150 µM and 2370 µM, respectively.

For the compound `O=c1c(O[C@@H]2O[C@H](CO)[C@@H](O)[C@H](O)[C@H]2O)c(-c2ccc(O)c(O)c2)oc2cc(O)cc(O)c12` [Compound 25, Isoquercitrin], the “ABTS radical scavenging by size” value in experiment [2] is reported as “strongest ABTS radical scavengers”. The “antioxidant ability by FRAP (in words)” value in experiment [1] was “great antioxidant potency”; in experiment [1] (listed as isoquercitrin), “selective and significant antioxidant abilities”. This compound also gave an FRAP EC1 in experiment [1] (Table 11, mean ± SD, n = 3) of 520 µM. Moreover, the “COX-2 inhibition (in words)” value is “great COX-2 inhibition; also recorded: outstanding COX-2 inhibitory effects” on COX-2 and “potent COX-2 inhibitory capacity” at COX-2 (listed as isoquercitrin). Further, the “antioxidant ability by DPPH (in words)” value is “great antioxidant potency” in the experiment “DPPH· scavenging assay”; “selective and significant antioxidant abilities” in the experiment “DPPH· scavenging assay” (listed as isoquercitrin).

Turning to `O=c1cc(-c2ccc(O)cc2)oc2c([C@H]3OC[C@H](O)[C@H](O)[C@H]3O)c(O)c([C@@H]3O[C@H](CO)[C@@H](O)[C@H](O)[C@H]3O)c(O)c12` [Compound 21, Neoschaftoside], the “antioxidant ability by FRAP (in words)” value in experiment [1] is listed as “great antioxidant potency”. In the experiment “DPPH· scavenging assay”, the “antioxidant ability by DPPH (in words)” value is on record as “great antioxidant potency”.
